Measured values as given in patent US20140018537A1, “GPR119 AGONIST” (NIPPON CHEMIPHAR CO., LTD., priority 2008, published 2014).

Legend:
human GPR119 = biological target: T1, human GPR119 (Homo sapiens, UniProt Q8TDV5); assay: Intracellular cAMP increase in human GPR119 introduced cells (HitHunter cAMP XS+ Assay); assay type: cell-based; conditions: for EC50: hGPR119 stable cells, intracellular cAMP; for GPR119 agonist effect (in words): hGPR119 introduced cells, cAMP
T1 construct: expressed in transfected cells
T1 sequence (Q8TDV5 1-335): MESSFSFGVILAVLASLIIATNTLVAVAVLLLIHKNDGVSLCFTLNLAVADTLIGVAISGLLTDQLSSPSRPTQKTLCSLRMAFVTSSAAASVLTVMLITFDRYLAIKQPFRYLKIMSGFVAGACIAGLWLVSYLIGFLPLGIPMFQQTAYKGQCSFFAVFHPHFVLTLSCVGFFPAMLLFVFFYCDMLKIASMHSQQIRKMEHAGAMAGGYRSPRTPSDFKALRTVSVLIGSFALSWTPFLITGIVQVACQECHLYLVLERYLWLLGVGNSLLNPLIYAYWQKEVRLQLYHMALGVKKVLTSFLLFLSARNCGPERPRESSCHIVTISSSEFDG
Text: The GPR119 agonist effect was studied by measuring the effect of an analyte on increase of intracellular amount of cAMP in human GPR119 introduced cells. The testing method is described below.
(1) Construction of the Stable Cell Line Expressing Human G Protein-Coupled-Receptor 119 (hGPR119) Human GPR119 gene (NM 178471) is purchased from American Type Culture Collection (ATCC No. 10807349). Hind III site-added forward side primer ([…]: sequence No. 1) and Apa I site-added reverse side primer ([…]: sequence No. 2) are designed. The target gene is amplyfied by a polymerase chain reaction (PCR) method using KOD-Plus-Ver. 2 (TOYOBO #KOD-211). PCR is conducted by repeating three steps consisting of the step of 98° C.-10 seconds, the step of 55° C.-30 seconds, and the step of 68° C.-1 minute and 10 seconds in 35 cycles. The amplified PCR product is inserted into pcDNA5/FRT/TO (Invitrogen #V6520-20) plasmid. Cells, which can constantly express the target gene with tetracycline, are constructed using Flp-In T-REx-systen (invitorogen).
(2) Measurement of Intracellular Cyclic Adenosine Monophosphate (cAMP)
The hGPR119 introduced cells prepared in (1) are plated on a 96-well plate using Dulbecco's Modified Eagle Medium containing heat-inactived 10% fetal bovine serum. After incubation of 24 hours, tetracyclin (invitrogen #Q10019) is added to the culture medium to induce hGPR119 gene expression. After further incubation of 24 hours, the cells are stimulated with 0.5 mM 3-ISOBUTYL-1-METHYLXANTHINE (Sigma #17018) phosphate buffer containing the analyte at 37° C. for 30 minutes. The amount of the intracellular cAMP is measured by using FLUOstar Optima (BMG LABTECH) according to the protocol of HitHunter™ cAMP XS+Assay (GE Healthcare #90007503) to give the agonist activity of the analyte to the GPR119 receptor.
(1) Construction of the Stable Cell Line Expressing Human G-Protein Coupled Receptor 119 (hGPR119) hGPR119 gene (NM 178471) was purchased from American Type Culture Collection (ATCC No. 10807349). The forward primer that was added a HindIII site ([…] (sequence number 1)), and the reverse primer that was added an ApaI site ([…] (sequence number 2)) were designed, the target gene was amplified by polymerase chain reaction (PCR) using a KOD-Plus-Ver.2 (TOYOBO #KOD-211). PCR was repeated 3 steps (98° C. for 10 sec, 55° C. for 30 sec, 68° C. for 1 min 15 sec) by 35 cycles. Amplified PCR product was inserted in pcDNA5/FRT/TO (Invitrogen #V6520-20), and the stable cell line that expresses target gene when induced with tetracycline was created using the Flp-In T-Rex system (Invitrogen).
(2) Measuring Method of Intracellular Cyclic Adenosine Monophosphate (cAMP) hGPR119 stable cells made by above-mentioned (1) were plated on 96 well plates in Dulbecco's Modified Eagle Medium containing 10% heat-inactivated FBS. After 24 hours, the hGPR119 expression was induced by adding medium containing tetracycline (Invitrogen #Q10019) and incubating for another 24 hours. Following incubation, cells were stimulated by 0.5 mM 3-ISOBUTYL-1-METHYLXANTHINE (Sigma #17018) phosphate buffered saline containing test compound for 30 minutes at 37° C. Agonist activity of test compound to the GPR119 receptor was estimated by measuring the intracellular cAMP concentration using a Fluostar optima plate reader (BMG LABTECH) according to the manufacturer's protocol of the HitHunter™ cAMP XS+Assay (GE Healthcare #90007503).
The examination was performed by the method similar to Example 86 (Pharmacological experiment 1)-(1), -(2).

normal mice = assay: Oral glucose tolerance test in normal mice; assay type: in vivo
Description: Oral glucose tolerance is tested in normal mice.
In this experiment, the inhibitory effect of an analyte on glycemic excursions is examined after glucose administration in normal mice. The test methods are described below.
Male 9-week-old ICR mice, habituated to the experimental environment for two weeks, are fasted for 18 hours and used to this experiment. Mice are orally administered the analyte or vehicle (polyethylene glycol 400:ethanol:Tween 80=8:1:1). After 30 minutes, they were orally given glucose at the dose of 3 g/kg.
Blood was collected at just before the analyte or vehicle administration (−30 minutes), immediately before glucose challenge (0 minute), 20 minutes, 40 minutes, 60 minutes, and 120 minutes after glucose ingestion to determine blood glucose levels.
Inhibition rate (%) of the analyte versus vehicle in areas under the glycemic excursion curve between 0 and 120 min after glucose challenge is determined.
Oral Glucose Tolerance Test in Normal Mice […]
Blood was collected at just before the test compound or vehicle administration (−30 min), immediately before glucose challenge (0 min), 20 min, 40 min, 60 min and 120 min after glucose ingestion and then blood glucose levels were determined.
Inhibition rate (%) of the test compound versus vehicle in areas under the glycemic excursion curve between 0 and 120 min after glucose challenge was determined.

[1] = Table 17, method similar to Example 86
[2] = Table 16, tetracycline-induced, 30 minutes at 37° C.

Row | SMILES | EC50 (human GPR119; [1]) [nM] | melting point [°C] | also measured
1 | CC(C)c1nc(N2CCC(c3ccc(COc4ccc(S(C)(=O)=O)cc4)nc3)CC2)no1 [Example 8, 5-[1-(5-Isopropyl-1,2,4-oxadiazol-3-yl)piperidin-4-yl]-2-(4-methanesulfonylphenoxymethyl)pyridine] | 137 | 143 to 145 | –
2 | CC(C)(C)OC(=O)N1CCC(c2ccc(COc3ccc(-n4cncn4)cc3)nc2)CC1 [Example 16, tert-Butyl 4-[2-[4-(1,2,4-triazol-1-yl)phenoxymethyl]pyridin-5-yl]piperidine-1-carboxylate] | 129 | 147 to 150 | –
3 | CCC(C)(C)OC(=O)N1CCC(c2ccc(COc3ccc(S(C)(=O)=O)cc3)nc2)CC1 [Example 41, 1,1-Dimethylpropyl 4-[2-(4-methanesulfonylphenoxymethyl)pyridin-5-yl]piperidine-1-carboxylate] | 114 | 114 to 115 | –
4 | CC(C)(C)OC(=O)N1CCC(c2ccc(COc3ccc(S(C)(=O)=O)cc3)cn2)CC1 [Example 2, tert-Butyl 4-[5-(4-methanesulfonylphenoxymethyl)pyridin-2-yl]piperidine-1-carboxylate] | – | 140 to 142 | EC50 (human GPR119; [2]): 606 nM; GPR119 agonist effect (in words) (human GPR119): excellent GPR119 agonist effect
5 | COc1cc(C2CCN(C(=O)OC(C)(C)C)CC2)cnc1COc1ccc(S(C)(=O)=O)cc1 [Example 67, tert-Butyl 4-[2-(4-methanesulfonylphenoxymethyl)-3-methoxypyridin-5-yl]piperidine-1-carboxylate] | – | 153 to 154 | –
6 | CCCc1cnc(N2CCC(c3ccc(COc4ccc(S(C)(=O)=O)cc4)nc3)CC2)nc1 [Example 49, 2-[4-[2-(4-Methanesulfonylphenoxymethyl)pyridin-5-yl]piperidin-1-yl]-5-propylpyrimidine] | – | 164 to 166 | –
7 | CCc1cnc(N2CCC(c3ccc(COc4ccc(S(C)(=O)=O)cc4)nc3)CC2)nc1 [Example 48, 5-Ethyl-2-[4-[2-(4-methanesulfonylphenoxymethyl)pyridin-5-yl]piperidin-1-yl]pyrimidine] | 137 | 185 to 187 | –
8 | CC(C)(C)OC(=O)N1CCC(c2ccc(COc3ccc(S(C)(=O)=O)cc3)nc2)CC1 [Example 1, tert-Butyl 4-[2-(4-methanesulfonylphenoxymethyl)pyridin-5-yl]piperidine-1-carboxylate] | – | – | EC50 (human GPR119; [2]): 26.8 nM; GPR119 agonist effect (in words) (human GPR119): excellent GPR119 agonist effect; Inhibition rate (%) (normal mice; 10 mg/kg oral, male ICR mice, glucose 3 g/kg 30 min later, area under glycemic excursion curve 0-120 min versus vehicle): 41.8%; inhibitory effect on glycemic excursions (in words) (normal mice; oral glucose tolerance test of normal mice): strong inhibitory effect
9 | CC(C)(C)OC(=O)N1CCC(c2ccc(COc3ccc([N+](=O)[O-])cc3)nc2)CC1 [Example 33, tert-Butyl 4-[2-(4-nitrophenoxymethyl)pyridin-5-yl]-piperidine-1-carboxylate] | – | 149 to 150 | –
10 | CCCCCc1cnc(N2CCC(c3ccc(COc4ccc(-n5cnnn5)cc4)nc3)CC2)nc1 [Example 56, 5-Pentyl-2-[4-[2-[4-(tetrazol-1-yl)phenoxymethyl]pyridin-5-yl]piperidin-1-yl]pyrimidine] | – | 174 to 176 | –
11 | Cc1cc(C2CCN(C(=O)OC(C)(C)C)CC2)cnc1COc1ccc(S(C)(=O)=O)cc1 [Example 63, tert-Butyl 4-[2-(4-methanesulfonylphenoxymethyl)-3-methylpyridin-5-yl]piperidine-1-carboxylate] | 28.4 | 130 to 132 | –
12 | CCOC(=O)c1ccc(OCc2ccc(C3CCN(C(=O)OC(C)(C)C)CC3)cn2)cc1F [Example 9, tert-Butyl 4-[2-(4-ethoxycarbonyl-3-fluorophenoxymethyl)pyridin-5-yl]piperidine-1-carboxylate] | – | 92 to 95 | –
13 | CCCCCc1cnc(N2CCC(c3ccc(COc4ccc(S(C)(=O)=O)cc4)nc3)CC2)nc1 [Example 50, 2-[4-[2-(4-Methanesulfonylphenoxymethyl)pyridin-5-yl]piperidin-1-yl]-5-pentylpyrimidine] | – | 154 to 157 | –
14 | Cc1cc(C2CCN(C(=O)OC(C)(C)C)CC2)cnc1COc1ccc(S(C)(=O)=O)cc1Cl [Example 80, tert-Butyl 4-[2-(2-chloro-4-methanesulfonylphenoxymethyl)-3-methylpyridin-5-yl]piperidine-1-carboxylate] | 65.9 | 143 to 145 | –
